Assay results published in patent US12264339B2, “Compositions and methods involving engineered P27” (THE REGENTS OF THE UNIVERSITY OF CALIFORNIA, priority 2018, dated 2025).

Assays:
[1] = tested on: Rb (771-928), FoxM1 (526-748), histone H1; assay: 32P-ATP kinase assay of protein complexes on substrates (FIG. 1A); type: biochemical; conditions: 0.5 μM complex, 20 μM substrate, 250 μM ATP, 30 minutes
Method: The phosphorylation activity of Cdk4 in various complexes was tested using different substrates.
The substrates used in the kinase assays were the C-terminal domain of the retinoblastoma protein (Rb (771-928); SEQ ID NO: 62), the transactivation domain of FoxM1 (FoxM1 (526-748); SEQ ID NO: 64), and full-length histone H1 (SEQ ID NO: 65).

[2] = Steady-state kinetic assays, initial rate of phosphorylation vs ATP concentration (FIGS. 1B and 1C); type: biochemical; conditions: summary of kinetic results, FIG. 1C

| Substance | phosphorylation activity toward substrates [1] | ATP substrate capture [2] |
| --- | --- | --- |
| Cdk4-CycD dimeric complex: Cdk4-CycD1 dimeric complex lacking p27; covers complexes (i) and (ii) | high phosphorylation activity specifically for Rb |  |
| engineered p27 with Y74E, Y88E, and Y89E-Cdk4-CycD1 trimeric complex: trimeric complex of p27 Y74E/Y88E/Y89E, Cdk4 and CycD1; covers complexes (vii) and (viii) | greater activity toward FoxM1 and histone 1 | enhances ATP substrate capture |
